# Where “and” joins values, the source holds several entries; their conditions need not be identical. Identical values can stand only once. Like-named read-outs stand apart in the source and are kept apart here.
# How the values were obtained:
# HIF-2α = test: Western blot of treated 786-0 cells: HIF-2α; type: cell-based, human; conditions: 786-0 CCRCC cells, 24 hours
# Procedure: (§1) Western blots were performed to determine the effects of the compounds on levels of HIF-2α and other relevant proteins. 786-0 (pVHL deficient clear cell kidney cancer cells) were purchased from ATCC were plated at 1×10E5 cells/well in 2 ml DMEM with 10% FBS/well in 6-well tissue culture plates. Cells were allowed to adhere overnight in a humidified incubator at 37° C. with 5% CO2, after which the appropriate concentrations of compounds in DMSO were added. DMSO concentrations were kept constant in all wells. After 24 hour's exposure to the compounds, cells were lysed and subjected to western blotting according to standard protocols (Polek, Talpaz et al. 2003). Antibodies for HIF-2α and Glyceraldehyde 3-Phosphate Dehydrogenase (GAPDH) were purchased from Cell Signaling Technology (Danvers, Mass.), whereas antibodies to iron responsive element binding protein 2 (IRP2) and Glutathione Peroxidase 4 (GPX4) were from Santa Cruz Biotechnology (Dallas, Tex.) and R&D Systems, Inc (Minneapolis, Minn.). Representative data in FIG. 3 show a dose-dependent effect of compounds in decreasing HIF-2α. Compounds also impact cellular iron sensing given by increased IRP2, which taken together indicate that cells sense decreased amounts of available iron. Representative data shown in FIG. 5 Part C show a dose dependent effect of the compounds on GPX4, which may indicate decreased resistance to ferroptosis.
# GPX4 = test: Western blot of treated 786-0 cells: GPX4; type: cell-based, human; conditions: higher concentrations of compound, FIG. 4 Part D
# Procedure: as §1
# [1] = Bioavailability determination of KD025HCl in mice (plasma levels after IV or PO); type: in vivo; conditions: for MRT last: read-out: MRT0-last
# Procedure: To determine the bioavailability KD025HCl, serum concentrations of KD025HCl were determined after varying durations following oral or intravenous (IV) administration. Doses were validated by LC/MS/MS.
# For IV administration, 264 μl of N-Methyl-2-Pyrrolidone (NMP) was added to 1.221 mg of KD025HCl, and the solution vortexed and sonicated until complete dissolution. Then, 2.374 ml of 10% (v/v) solutol in water for injection was added, and the solution vortexed, then sonicated with a bath sonicator. The final dosing formulation of a brownish colored clear solution. A single 2 mg/kg dose (5 ml/kg) was administered IV each to nine male Swiss albino mice.
# For oral administration (PO), […] of Tween-80 was added to 3.38 mg of KD025HCl, triturated, then 2.893 ml of 0.5% methyl cellulose was added in parts with continuous trituration then vortexed. The final dosing formulation was a brownish colored clear solution. A single 10 mg/kg dose (10 ml/kg) was administered PO each to nine male Swiss albino mice.
# Calibration Curve & QC preparation: 2.0 μl of calibration curve standards were added to […] of blank matrix and precipitated with 200 μl of Acetonitrile containing an internal standard at 200 ng/ml. The solution was vortexed for 5 min at 850 rpm, then centrifuged at 4000 rpm for 5 min at 4° C. 110 μl of the supernatant was obtained and diluted with 130 μl of (Methanol:water, 1:1 v/v). Sample Preparation: 50 μl of sample was precipitated with 200 μl of Acetonitrile containing the internal standard at 200 ng/ml. The mixture was vortexed for 5 min at 850 rpm, then centrifuged at 4000 rpm for 5 min at 4° C. 110 μL of supernatant was obtained and diluted with 130 μL of (Methanol:water, 1:1 v/v).
# Using this procedure, the plasma levels of KD025HCl after either IV or PO administration was determined, and bioavailability as well as other pharmacokinetic parameters were determined and shown in Table 6.
# [2] = IV 2.00 mg/kg, 24.00 h, Swiss albino mice, BLQ: Below limits of quantitation
# [3] = IV 2.00 mg/kg, Swiss albino mice, plasma
# [4] = male, mouse, IV 2.00 mg/kg, Swiss albino mice, plasma
# [5] = male, mouse, PO 10.00 mg/kg, Swiss albino mice, plasma
smiles,measurement,setting,value
"COc1ccc(-c2nnc(Nc3nc4c(OC)nccc4[nH]3)o2)cc1OC [KD025HCl, N-(4-Methoxy-1H-imidazo[4,5-c]pyridin-2-yl)-5-(3,4-dimethoxyphenyl)-1,3,4-oxadiazol-2-amine]",HIF-2α protein relative to GAPDH (western blot),HIF-2α,decreases
same,GPX4 protein (western blot),GPX4,decrease
same,"Plasma concentration, individual animals (M1-, M2-, M3-)","[1]; IV 2.00 mg/kg, 0.08 h, Swiss albino mice, 2 mg/kg",3949.80 ng/mL and 3776.46 ng/mL
same,"Plasma concentration, individual animals (M1-, M2-, M3-)","[1]; IV 2.00 mg/kg, 0.25 h, Swiss albino mice, 2 mg/kg",2069.26 ng/mL and 3078.66 ng/mL
same,"Plasma concentration, individual animals (M1-, M2-, M3-)","[1]; IV 2.00 mg/kg, 0.50 h, Swiss albino mice, 2 mg/kg",1527.09 ng/mL and 2079.24 ng/mL
same,"Plasma concentration, individual animals (M1-, M2-, M3-)","[1]; IV 2.00 mg/kg, 1.00 h, Swiss albino mice, 2 mg/kg",282.26 ng/mL and 11135.53 ng/mL and 952.05 ng/mL
same,"Plasma concentration, individual animals (M1-, M2-, M3-)","[1]; IV 2.00 mg/kg, 2.00 h, Swiss albino mice, 2 mg/kg",277.23 ng/mL and 334.05 ng/mL and 611.15 ng/mL
same,"Plasma concentration, individual animals (M1-, M2-, M3-)","[1]; IV 2.00 mg/kg, 4.00 h, Swiss albino mice, 2 mg/kg",31.51 ng/mL and 45.40 ng/mL
same,"Plasma concentration, individual animals (M1-, M2-, M3-)","[1]; IV 2.00 mg/kg, 8.00 h, Swiss albino mice, 2 mg/kg",11.09 ng/mL and 28.55 ng/mL and 16.02 ng/mL
same,"Plasma concentration, Mean",[1]; [2],BLQ
same,"Plasma concentration, individual animals (M1-, M2-, M3-)",[1]; [2],BLQ
same,AUCExtra,[1]; [3],1.15%
same,Co,[1]; [3],5481.64 ng/mL
same,"Plasma concentration, individual animals (M1-, M2-, M3-)","[1]; PO 10.00 mg/kg, 0.25 h, Swiss albino mice, 10 mg/kg",1609.45 ng/mL and 742.75 ng/mL and 1428.60 ng/mL
same,"Plasma concentration, individual animals (M1-, M2-, M3-)","[1]; PO 10.00 mg/kg, 0.50 h, Swiss albino mice, 10 mg/kg",1712.09 ng/mL and 2056.44 ng/mL
same,"Plasma concentration, individual animals (M1-, M2-, M3-)","[1]; PO 10.00 mg/kg, 1.00 h, Swiss albino mice, 10 mg/kg",784.84 ng/mL and 1081.06 ng/mL
same,"Plasma concentration, individual animals (M1-, M2-, M3-)","[1]; PO 10.00 mg/kg, 2.00 h, Swiss albino mice, 10 mg/kg",861.31 ng/mL and 1052.53 ng/mL
same,"Plasma concentration, individual animals (M1-, M2-, M3-)","[1]; PO 10.00 mg/kg, 4.00 h, Swiss albino mice, 10 mg/kg",179.52 ng/mL and 94.08 ng/mL and 235.20 ng/mL
same,"Plasma concentration, individual animals (M1-, M2-, M3-)","[1]; PO 10.00 mg/kg, 6.00 h, Swiss albino mice, 10 mg/kg",93.52 ng/mL and 126.29 ng/mL
same,"Plasma concentration, individual animals (M1-, M2-, M3-)","[1]; PO 10.00 mg/kg, 8.00 h, Swiss albino mice, 10 mg/kg",50.78 ng/mL and 99.61 ng/mL
same,"Plasma concentration, Mean","[1]; PO 10.00 mg/kg, 24.00 h, Swiss albino mice, BLQ: Below limits of quantitation",BLQ
same,"Plasma concentration, individual animals (M1-, M2-, M3-)","[1]; PO 10.00 mg/kg, 24.00 h, Swiss albino mice, BLQ: Below limits of quantitation, 10 mg/kg",BLQ
same,AUCExtra,"[1]; PO 10.00 mg/kg, Swiss albino mice, plasma",9.83%
same,concentration at 0.08 h,"[1]; male, Swiss albino, mouse, plasma, iv, 2 mg/kg, IV 2.00 mg/kg, 0.08 h, read-out: Plasma concentration, Mean",4170 ng/mL
same,concentration at 0.08 h,"[1]; male, Swiss albino, mouse, plasma, iv, 2 mg/kg, IV 2.00 mg/kg, 0.08 h, read-out: Plasma concentration, individual animals (M1-, M2-, M3-)",4790 ng/mL
same,concentration at 0.25 h,"[1]; male, Swiss albino, mouse, plasma, iv, 2 mg/kg, IV 2.00 mg/kg, 0.25 h, read-out: Plasma concentration, Mean",2340 ng/mL
same,concentration at 0.25 h,"[1]; male, Swiss albino, mouse, plasma, iv, 2 mg/kg, IV 2.00 mg/kg, 0.25 h, read-out: Plasma concentration, individual animals (M1-, M2-, M3-)",1860 ng/mL
same,concentration at 0.5 h,"[1]; male, Swiss albino, mouse, plasma, iv, 2 mg/kg, IV 2.00 mg/kg, 0.50 h, read-out: Plasma concentration, Mean",1700 ng/mL
same,concentration at 0.5 h,"[1]; male, Swiss albino, mouse, plasma, iv, 2 mg/kg, IV 2.00 mg/kg, 0.50 h, read-out: Plasma concentration, individual animals (M1-, M2-, M3-)",1480 ng/mL
same,concentration at 1 h,"[1]; male, Swiss albino, mouse, plasma, iv, 2 mg/kg, IV 2.00 mg/kg, 1.00 h, read-out: Plasma concentration, Mean",790 ng/mL
same,concentration at 2 h,"[1]; male, Swiss albino, mouse, plasma, iv, 2 mg/kg, IV 2.00 mg/kg, 2.00 h, read-out: Plasma concentration, Mean",407 ng/mL
same,concentration at 4 h,"[1]; male, Swiss albino, mouse, plasma, iv, 2 mg/kg, IV 2.00 mg/kg, 4.00 h, read-out: Plasma concentration, Mean",38 ng/mL
same,concentration at 4 h,"[1]; male, Swiss albino, mouse, plasma, iv, 2 mg/kg, IV 2.00 mg/kg, 4.00 h, read-out: Plasma concentration, individual animals (M1-, M2-, M3-)",37.2 ng/mL
same,concentration at 8 h,"[1]; male, Swiss albino, mouse, plasma, iv, 2 mg/kg, IV 2.00 mg/kg, 8.00 h, read-out: Plasma concentration, Mean",18.6 ng/mL
same,Vd,"[1]; male, Swiss albino, mouse, plasma, iv, 2 mg/kg, IV 2.00 mg/kg, plasma, read-out: Vd",1.24 L/kg
same,Vd,"[1]; male, Swiss albino, mouse, plasma, iv, 2 mg/kg, IV 2.00 mg/kg, plasma, read-out: Vss",0.72 L/kg
same,concentration at 0.25 h,"[1]; male, Swiss albino, mouse, plasma, po, 10 mg/kg, PO 10.00 mg/kg, 0.25 h, read-out: Plasma concentration, Mean",1260 ng/mL
same,concentration at 0.5 h,"[1]; male, Swiss albino, mouse, plasma, po, 10 mg/kg, PO 10.00 mg/kg, 0.50 h, read-out: Plasma concentration, Mean",1910 ng/mL
same,concentration at 0.5 h,"[1]; male, Swiss albino, mouse, plasma, po, 10 mg/kg, PO 10.00 mg/kg, 0.50 h, read-out: Plasma concentration, individual animals (M1-, M2-, M3-)",1970 ng/mL
same,concentration at 1 h,"[1]; male, Swiss albino, mouse, plasma, po, 10 mg/kg, PO 10.00 mg/kg, 1.00 h, read-out: Plasma concentration, Mean",1140 ng/mL
same,concentration at 1 h,"[1]; male, Swiss albino, mouse, plasma, po, 10 mg/kg, PO 10.00 mg/kg, 1.00 h, read-out: Plasma concentration, individual animals (M1-, M2-, M3-)",1570 ng/mL
same,concentration at 2 h,"[1]; male, Swiss albino, mouse, plasma, po, 10 mg/kg, PO 10.00 mg/kg, 2.00 h, read-out: Plasma concentration, Mean",953 ng/mL
same,concentration at 2 h,"[1]; male, Swiss albino, mouse, plasma, po, 10 mg/kg, PO 10.00 mg/kg, 2.00 h, read-out: Plasma concentration, individual animals (M1-, M2-, M3-)",945 ng/mL
same,concentration at 4 h,"[1]; male, Swiss albino, mouse, plasma, po, 10 mg/kg, PO 10.00 mg/kg, 4.00 h, read-out: Plasma concentration, Mean",170 ng/mL
same,concentration at 6 h,"[1]; male, Swiss albino, mouse, plasma, po, 10 mg/kg, PO 10.00 mg/kg, 6.00 h, read-out: Plasma concentration, Mean",127 ng/mL
same,concentration at 6 h,"[1]; male, Swiss albino, mouse, plasma, po, 10 mg/kg, PO 10.00 mg/kg, 6.00 h, read-out: Plasma concentration, individual animals (M1-, M2-, M3-)",160 ng/mL
same,concentration at 8 h,"[1]; male, Swiss albino, mouse, plasma, po, 10 mg/kg, PO 10.00 mg/kg, 8.00 h, read-out: Plasma concentration, Mean",78.6 ng/mL
same,concentration at 8 h,"[1]; male, Swiss albino, mouse, plasma, po, 10 mg/kg, PO 10.00 mg/kg, 8.00 h, read-out: Plasma concentration, individual animals (M1-, M2-, M3-)",85.5 ng/mL
same,concentration at 24 h,"[1]; male, Swiss albino, mouse, plasma, po, 10 mg/kg, PO 10.00 mg/kg, 24.00 h, BLQ: Below limits of quantitation, read-out: Plasma concentration, individual animals (M1-, M2-, M3-)",1.79 ng/mL
same,bioavailability,"[1]; male, mouse, plasma, PO 10.00 mg/kg versus IV 2.00 mg/kg, Swiss albino mice, read-out: Bio availability (% f)",27.3%
same,AUC(0-inf),[1]; [4],3050 ng·h/mL
same,AUC(0-t),[1]; [4],3010 ng·h/mL
same,clearance,[1]; [4],10.9 mL/min/kg
same,half-life,[1]; [4],1.31 h
same,MRT last,[1]; [4],0.99 h
same,AUC(0-inf),[1]; [5],4160 ng·h/mL
same,AUC(0-t),[1]; [5],3750 ng·h/mL
same,Cmax,[1]; [5],1910 ng/mL
same,Tmax,[1]; [5],0.5 h
same,half-life,[1]; [5],3.61 h
same,MRT last,[1]; [5],2.03 h

# Reference: US11447482B1, “Imidazopyridine and oxazolopyridine derivatives and analogs thereof, methods of preparation thereof, methods of HIF-2A pathway inhibition, and induction of ferroptosis” (KUDA Therapeutics, Inc., priority 2019, dated 2022)
